Columns and labels:
Assay type in all cases: in vivo
[1] = system: barnyardgrass (Echinochloa crus-galli); assay: Test A preemergence soil spray, visual injury rating 0-100; details: 10 days, 0 = no effect, 100 = complete control
Source text: (§1) Seeds of plant species selected from barnyardgrass (Echinochloa crus-galli), blackgrass (Alopecurus myosuroides), corn (Zea mays), foxtail, giant (giant foxtail, Setaria faberi), green foxtail (Setaria viridis), goosegrass (Eleusine indica), kochia (Bassia scoparia), oat, wild (wild oat, Avena fatua), palmer (palmer amaranth, palmer pigweed, Amaranthus palmeri), ragweed (common ragweed, Ambrosia artemisiifolia), ryegrass, Italian (italian ryegrass, Lolium multiflorum), soybean (Glycine max) and wheat (Triticum aestivum) were planted into a blend of loam soil and sand and treated preemergence with a directed soil spray using test chemicals formulated in a non-phytotoxic solvent mixture which included a surfactant.
(§2) At the same time, plants selected from these crops and weed species and also galium (catchweed bedstraw, Galium aparine) and horseweed (Erigeron canadensis) were planted in pots containing the same blend of loam soil and sand and treated with postemergence applications of test chemicals formulated in the same manner. Plants ranged in height from 2 to 10 cm and were in the one- to two-leaf stage for the postemergence treatment. Treated plants and untreated controls were maintained in a greenhouse for 10 days, after which time all treated plants were compared to untreated controls and visually evaluated for injury. Plant response ratings, summarized in Table A, are based on a 0 to 100 scale where 0 is no effect and 100 is complete control. A dash (-) response means no test result.

[2] = system: blackgrass (Alopecurus myosuroides); assay: as above; details: 10 days, 0 = no effect, 100 = complete control
Source text: as §1, §2

corn (Zea mays) [3] = assay: as above; details: 10 days, 0 = no effect, 100 = complete control
Source text: as §1, §2

[4] = system: green foxtail (Setaria viridis); assay: as above; details: 10 days, 0 = no effect, 100 = complete control
Source text: as §1, §2

kochia (Bassia scoparia) [5] = assay: as above; details: 10 days, 0 = no effect, 100 = complete control
Source text: as §1, §2

[6] = system: oat, wild (wild oat, Avena fatua); assay: as above; details: 10 days, 0 = no effect, 100 = complete control
Source text: as §1, §2

[7] = system: palmer (palmer amaranth, palmer pigweed, Amaranthus palmeri); assay: as above; details: 10 days, 0 = no effect, 100 = complete control
Source text: as §1, §2

[8] = system: ragweed (common ragweed, Ambrosia artemisiifolia); assay: as above; details: 10 days, 0 = no effect, 100 = complete control
Source text: as §1, §2

[9] = system: ryegrass, Italian (italian ryegrass, Lolium multiflorum); assay: as above; details: 10 days, 0 = no effect, 100 = complete control
Source text: as §1, §2

soybean (Glycine max) [10] = assay: as above; details: 10 days, 0 = no effect, 100 = complete control
Source text: as §1, §2

[11] = system: wheat (Triticum aestivum); assay: as above; details: 10 days, 0 = no effect, 100 = complete control
Source text: as §1, §2

[12] = system: barnyardgrass (Echinochloa crus-galli); assay: Test A postemergence application, visual injury rating 0-100; details: 10 days
Source text: as §1, §2

[13] = system: blackgrass (Alopecurus myosuroides); assay: as above; details: 10 days
Source text: as §1, §2

corn (Zea mays) [14] = assay: as above; details: 10 days
Source text: as §1, §2

[15] = system: green foxtail (Setaria viridis); assay: as above; details: 10 days
Source text: as §1, §2

[16] = system: horseweed (Erigeron canadensis); assay: as above; details: 10 days
Source text: as §1, §2

kochia (Bassia scoparia) [17] = assay: as above; details: 10 days
Source text: as §1, §2

[18] = system: oat, wild (wild oat, Avena fatua); assay: as above; details: 10 days
Source text: as §1, §2

[19] = system: palmer (palmer amaranth, palmer pigweed, Amaranthus palmeri); assay: as above; details: 10 days
Source text: as §1, §2

[20] = system: ragweed (common ragweed, Ambrosia artemisiifolia); assay: as above; details: 10 days
Source text: as §1, §2

[21] = system: ryegrass, Italian (italian ryegrass, Lolium multiflorum); assay: as above; details: 10 days
Source text: as §1, §2

soybean (Glycine max) [22] = assay: as above; details: 10 days
Source text: as §1, §2

[23] = system: wheat (Triticum aestivum); assay: as above; details: 10 days
Source text: as §1, §2

[24] = system: barnyardgrass (Echinochloa crusgalli); assay: Test B flooded paddy test, visual plant response rating 0-100; details: 250 g ai/ha, Flood, applied to paddy water, evaluated after 13 days
Procedure: (§3) Plant species in the flooded paddy test selected from barnyardgrass (Echinochloa crusgalli), ducksalad (Heteranthera limosa), rice (Oryza sativa), and sedge, umbrella (small-flower umbrella sedge, Cyperus difformis) were grown to the 2-leaf stage for testing. At time of treatment, test pots were flooded to 3 cm above the soil surface, treated by application of test compounds directly to the paddy water, and then maintained at that water depth for the duration of the test. Treated plants and controls were maintained in a greenhouse for 13 days, after which time all species were compared to controls and visually evaluated. […] A dash (-) response means no test result.

[25] = system: ducksalad (Heteranthera limosa); assay: as above; details: 250 g ai/ha, Flood, applied to paddy water, evaluated after 13 days
Procedure: as §3

rice (Oryza sativa) = assay: as above; details: 250 g ai/ha, Flood, applied to paddy water, evaluated after 13 days
Procedure: as §3

[26] = system: sedge, umbrella (small-flower umbrella sedge, Cyperus difformis); assay: as above; details: 250 g ai/ha, Flood, applied to paddy water, evaluated after 13 days
Procedure: as §3

[27] = 31 g ai/ha, postemergence, 0 = no effect, 100 = complete control
[28] = Postemergence, 125 g ai/ha, 0 is no effect, 100 is complete control

SMILES: CNC(=O)C1CC(NC(=O)C2(C)CN(c3cc(F)cc(F)c3)C(=O)O2)CO1 (centres unmarked) [Compound 8]
- Barnyardgrass plant response rating (0-100) ([1]; 31 g ai/ha): 0
- Barnyardgrass plant response rating (0 to 100 scale) ([1]; 125 g ai/ha): 10
- Blackgrass plant response rating (0-100) ([2]; 31 g ai/ha): 0
- Blackgrass plant response rating (0 to 100 scale) ([2]; 125 g ai/ha): 50
- Corn plant response rating (0-100) (corn (Zea mays) [3]; 31 g ai/ha): 0
- Corn plant response rating (0 to 100 scale) (corn (Zea mays) [3]; 125 g ai/ha): 0
- Foxtail, Green plant response rating (0-100) ([4]; 31 g ai/ha): 0
- Foxtail, Green plant response rating (0 to 100 scale) ([4]; 125 g ai/ha): 40
- Kochia plant response rating (0-100) (kochia (Bassia scoparia) [5]; 31 g ai/ha): 0
- Kochia plant response rating (0 to 100 scale) (kochia (Bassia scoparia) [5]; 125 g ai/ha): 70
- Oat, Wild plant response rating (0-100) ([6]; 31 g ai/ha): 0
- Oat, Wild plant response rating (0 to 100 scale) ([6]; 125 g ai/ha): 20
- Amaranth, Palmer plant response rating (0-100) ([7]; 31 g ai/ha): 0
- Amaranth, Palmer plant response rating (0 to 100 scale) ([7]; 125 g ai/ha): 0
- Ragweed plant response rating (0-100) ([8]; 31 g ai/ha): 60
- Ragweed plant response rating (0 to 100 scale) ([8]; 125 g ai/ha): 0
- Ryegrass, Italian plant response rating (0-100) ([9]; 31 g ai/ha): 0
- Ryegrass, Italian plant response rating (0 to 100 scale) ([9]; 125 g ai/ha): 60
- Soybean plant response rating (0-100) (soybean (Glycine max) [10]; 31 g ai/ha): 0
- Soybean plant response rating (0 to 100 scale) (soybean (Glycine max) [10]; 125 g ai/ha): 0
- Wheat plant response rating (0-100) ([11]; 31 g ai/ha): 0
- Wheat plant response rating (0 to 100 scale) ([11]; 125 g ai/ha): 80
- Barnyardgrass plant response rating (0-100) [12, 27]: 0
- Barnyardgrass plant response rating (0 to 100 scale) [12, 28]: 0
- Blackgrass plant response rating (0-100) [13, 27]: 0
- Blackgrass plant response rating (0 to 100 scale) [13, 28]: 90
- Corn plant response rating (0-100) (corn (Zea mays) [14]; [27]): 0
- Corn plant response rating (0 to 100 scale) (corn (Zea mays) [14]; [28]): 0
- Foxtail, Green plant response rating (0-100) [15, 27]: 0
- Foxtail, Green plant response rating (0 to 100 scale) [15, 28]: 0
- Horseweed plant response rating (0-100) [16, 27]: 30
- Horseweed plant response rating (0 to 100 scale) [16, 28]: 10
- Kochia plant response rating (0-100) (kochia (Bassia scoparia) [17]; [27]): 0
- Kochia plant response rating (0 to 100 scale) (kochia (Bassia scoparia) [17]; [28]): 20
- Oat, Wild plant response rating (0-100) [18, 27]: 0
- Oat, Wild plant response rating (0 to 100 scale) [18, 28]: 0
- Amaranth, Palmer plant response rating (0-100) [19, 27]: 0
- Amaranth, Palmer / Pigweed, Palmer plant response rating (0 to 100 scale) [19, 28]: 0
- Ragweed plant response rating (0-100) [20, 27]: 0
- Ragweed plant response rating (0 to 100 scale) [20, 28]: 0
- Ryegrass, Italian plant response rating (0-100) [21, 27]: 0
- Ryegrass, Italian plant response rating (0 to 100 scale) [21, 28]: 0
- Soybean plant response rating (0-100) (soybean (Glycine max) [22]; [27]): 0
- Soybean plant response rating (0 to 100 scale) (soybean (Glycine max) [22]; [28]): 0
- Wheat plant response rating (0-100) [23, 27]: 0
- Wheat plant response rating (0 to 100 scale) [23, 28]: 20
- Plant response rating, Barnyardgrass (0 to 100 scale, 0 is no effect and 100 is complete control) [24]: 0
- Plant response rating, Ducksalad (0 to 100 scale, 0 is no effect and 100 is complete control) [25]: 0
- Plant response rating, Rice (0 to 100 scale, 0 is no effect and 100 is complete control) (rice (Oryza sativa)): 0
- Plant response rating, Sedge, Umbrella (0 to 100 scale, 0 is no effect and 100 is complete control) [26]: 0

From patent publication US20260285850A1, “SUBSTITUTED OXAZOLIDINONES AND IMIDAZOLINONES AS HERBICIDES” (FMC CORPORATION, priority 2023, published 2026)
